Experimental data taken from patent US20240279220A1, “INDOLE COMPOUNDS AND METHODS OF USE” (Genzyme Corporation, priority 2021, published 2024).

Each compound was assayed on NBD1/3D (assay: Aggregation analysis using differential static light scattering (DSLS), NBD1 thermal stability). Conditions: ΔTagg versus DMSO control; compound at 100 μM.
Format: binding, Human
How it was run: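 Thermal stabilisation reported as ΔTagg, i.e. aggregation temperature relative to averaged DMSO wells. Tagg came from the inflection of differential static light scattering imaged 25–70 °C while NBD1 (0.2 mg/ml, Tris pH 7.6 buffer containing ATP, MgCl2, DTT, glycerol) was ramped 1 °C/min.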

Structure (SMILES)	DSLS NBD1/3D Human Stability delta-T (° C.) @ 100 (μM)
CS(=O)(=O)c1c(Oc2cccc(-c3nc(Cc4cccc(CCC(=O)O)c4)co3)c2)c(F)cc2[nH]ccc12 [Example 42, 3-(3-((2-(3-((6-Fluoro-4-(methylsulfonyl)-1H-indol-5-yl)oxy)phenyl)oxazol-4-yl)methyl)phenyl)propanoic acid]	B (B: 5-10° C.)
COCCOC(c1cccc(CCC(=O)O)c1)c1cnc(-c2cc(Oc3c(F)cc4[nH]ccc4c3C)ccc2F)[nH]1 (centres unmarked) [Example 236, 3-(3-((2-(2-fluoro-5-((6-fluoro-4-methyl-1H-indol-5-yl)oxy)phenyl)-1H-imidazol-5-yl)(2-methoxyethoxy)methyl)phenyl) propanoic acid]	B (B: 5-10° C.)
Cc1c(Oc2ccc(F)c(-c3ncc(C(C)(C)c4cccc(CCC(=O)O)c4)[nH]3)c2)c(F)cc2[nH]ccc12 [Example 144, 3-(3-(2-(2-(2-fluoro-5-((6-fluoro-4-methyl-1H-indol-5-yl)oxy)phenyl)-1H-imidazol-5-yl)propan-2-yl)phenyl)propanoic acid]	B (B: 5-10° C.)
COCCOCCOC(C)(c1cccc(CCC(=O)O)c1)c1cnc(-c2cc(Oc3c(F)cc4[nH]ccc4c3C)ccc2F)[nH]1 (centres unmarked) [Example 233, 3-(3-(1-(2-(2-Fluoro-5-((6-fluoro-4-methyl-1H-indol-5-yl)oxy)phenyl)-1H-imidazol-5-yl)-1-(2-(2-methoxyethoxy)ethoxy)ethyl)phenyl)propanoic acid]	B (B: 5-10° C.)
O=C(O)CCCc1cccc(Cc2nnc(-c3cccc(Oc4ccc5[nH]ccc5c4)c3)[nH]2)c1 [Example 259, 4-(3-((5-(3-((1H-Indol-5-yl)oxy)phenyl)-4H-1,2,4-triazol-3-yl)methyl)phenyl)butanoic acid]	B (B: 5-10° C.)
O=C(O)CCc1cccc(Cc2cnc(-c3cc(Oc4c(F)cc5[nH]ccc5c4Cl)ccc3F)[nH]2)c1 [Example 107, 3-(3-((2-(5-((4-chloro-6-fluoro-1H-indol-5-yl)oxy)-2-fluorophenyl)-1H-imidazol-5-yl)methyl)phenyl)propanoic acid]	B (B: 5-10° C.)
CC(O)(c1cc(F)cc(CCC(=O)O)c1)c1c[nH]c(-c2cc(Oc3c(F)cc4[nH]ccc4c3F)ccc2F)n1 (centres unmarked) [Example 220, 3-(3-(1-(2-(5-((4,6-Difluoro-1H-indol-5-yl)oxy)-2-fluorophenyl)-1H-imidazol-4-yl)-1-hydroxyethyl)-5-fluorophenyl)propanoic acid]	B (B: 5-10° C.)
Cc1c(Oc2cccc(-c3ccn(Cc4cccc(CCC(=O)O)c4)n3)c2)ccc2[nH]ccc12 [Example 1, 3-(3-((3-(3-((4-Methyl-1H-indol-5-yl)oxy)phenyl)-1H-pyrazol-1-yl)methyl)phenyl)propanoic acid]	B (B: 5-10° C.)
Cc1c(Oc2ccc(F)c(-c3ncc(C(C)c4cccc(CCC(=O)O)c4)[nH]3)c2)c(F)cc2[nH]ccc12 (centres unmarked) [Example 213, 3-(3-(1-(2-(2-Fluoro-5-((6-fluoro-4-methyl-1H-indol-5-yl)oxy)phenyl)-1H-imidazol-5-yl)ethyl)phenyl)propanoic acid]	B (B: 5-10° C.)
Cc1c(Oc2ccc(F)c(-c3ncc([C@]4(c5cccc(CCC(=O)O)c5)C[C@@H](O)CO4)[nH]3)c2)c(F)cc2[nH]ccc12 (racemic) [Example 275, rac-3-(3-((2r,4r)-2-(2-(2-Fluoro-5-((6-fluoro-4-methyl-1H-indol-5-yl)oxy)phenyl)-1H-imidazol-5-yl)-4-hydroxytetrahydrofuran-2-yl)phenyl)propanoic acid]	B (B: 5-10° C.)
C[S+]([O-])c1c(Oc2cccc(-c3nc(Cc4cccc(CCC(=O)O)c4)cs3)c2)c(F)cc2[nH]ccc12 (centres unmarked) [Example 36, 3-(3-((2-(3-((6-Fluoro-4-(methylsulfinyl)-1H-indol-5-yl)oxy)phenyl)thiazol-4-yl)methyl)phenyl)propanoic acid]	B (B: 5-10° C.)
O=C(O)CCc1cccc(Cc2c[nH]c(-c3cc(Oc4c(F)cc5[nH]ccc5c4Cl)ccc3F)n2)c1F [Example 111, 3-(3-((2-(5-((4-chloro-6-fluoro-1H-indol-5-yl)oxy)-2-fluorophenyl)-1H-imidazol-4-yl)methyl)-2-fluorophenyl)propanoic acid]	B (B: 5-10° C.)
CS(=O)(=O)c1c(Oc2ccc(F)c(-c3ncc(Cc4cccc(CCC(=O)O)c4)[nH]3)c2)c(F)cc2[nH]ccc12 [Example 22, 3-(3-((2-(2-Fluoro-5-((6-fluoro-4-(methylsulfonyl)-1H-indol-5-yl)oxy)phenyl)-1H-imidazol-5-yl)methyl)phenyl)propanoic acid]	A (A: T ≥ 10° C.)
Cc1c(Oc2ccc(F)c(-c3ncc(C(O)(c4cccc(CCC(=O)O)c4)C(C)C)[nH]3)c2)c(F)cc2[nH]ccc12 (centres unmarked) [Example 224, 3-(3-(1-(2-(2-fluoro-5-((6-fluoro-4-methyl-1H-indol-5-yl)oxy)phenyl)-1H-imidazol-5-yl)-1-hydroxy-2-methylpropyl)phenyl) propanoic acid]	B (B: 5-10° C.)
Cc1c(Oc2cccc(-c3ccc(Cc4cccc(CCC(=O)O)c4)[nH]3)c2)c(F)cc2[nH]ccc12 [Example 21, 3-(3-((5-(3-((6-Fluoro-4-methyl-1H-indol-5-yl)oxy)phenyl)-1H-pyrrol-2-yl)methyl)phenyl)propanoic acid]	C (C: ≤5° C.)
O=C(O)CCc1cccc(Cc2cnc(-c3cccc(Oc4c(F)cc5[nH]ccc5c4SC(F)(F)F)c3)[nH]2)c1 [Example 102, 3-(3-((2-(3-((6-fluoro-4-((trifluoromethyl)thio)-1H-indol-5-yl)oxy)phenyl)-1H-imidazol-5-yl)methyl)phenyl)propanoic acid]	B (B: 5-10° C.)
O=C(O)CCc1cccc(C(O)c2cnc(-c3cccc(Oc4ccc5[nH]ccc5c4C4CC4)c3)[nH]2)c1 (centres unmarked) [Example 175, 3-(3-((2-(3-((4-cyclopropyl-1H-indol-5-yl)oxy)phenyl)-1H-imidazol-5-yl)(hydroxy)methyl)phenyl)propanoic acid]	B (B: 5-10° C.)
Cc1c(Oc2ccc(F)c(-c3ncc(C(C)(O)c4cccc(CC(F)C(=O)O)c4)[nH]3)c2)c(F)cc2[nH]ccc12 (centres unmarked) [Example 199, 2-fluoro-3-(3-(1-(2-(2-fluoro-5-((6-fluoro-4-methyl-1H-indol-5-yl)oxy)phenyl)-1H-imidazol-5-yl)-1-hydroxyethyl)phenyl) propanoic acid]	A (A: T ≥ 10° C.)
[2H]C([2H])([2H])C(C#N)(c1cc(F)cc(CCC(=O)O)c1)c1cnc(-c2cc(Oc3c(F)c(F)c4[nH]ccc4c3C)ccc2F)[nH]1 (centres unmarked) [Example 63, 3-(3-(1-cyano-1-(2-(5-((6,7-difluoro-4-methyl-1H-indol-5-yl)oxy)-2-fluorophenyl)-1H-imidazol-5-yl)ethyl-2,2,2-d3)-5-fluorophenyl)propanoic acid]	B (B: 5-10° C.)
CC(O)(c1cccc(CC(F)C(=O)O)c1)c1cnc(-c2cc(Oc3c(F)cc4[nH]ccc4c3F)ccc2F)[nH]1 (centres unmarked) [Example 202, 3-(3-(1-(2-(5-((4,6-difluoro-1H-indol-5-yl)oxy)-2-fluorophenyl)-1H-imidazol-5-yl)-1-hydroxyethyl)phenyl)-2-fluoropropanoic acid]	A (A: T ≥ 10° C.)
Cc1c(Oc2ccc(F)c(-c3ncc(C(C)c4cccc([C@H]5C[C@H]5C(=O)O)c4F)[nH]3)c2)c(F)cc2[nH]ccc12 (single isomer, unassigned) [Example 138D, cis-2-(2-fluoro-3-(1-(2-(2-fluoro-5-((6-fluoro-4-methyl-1H-indol-5-yl)oxy)phenyl)-1H-imidazol-5-yl)ethyl)phenyl)cyclopropane-1-carboxylic acid]	C (C: ≤5° C.)
Cc1c(Oc2cccc(-c3ncc(C(O)c4cccc(CC(F)C(=O)O)c4)[nH]3)c2)ccc2[nH]ccc12 (centres unmarked) [Example 172, 2-Fluoro-3-(3-(hydroxy(2-(3-((4-methyl-1H-indol-5-yl)oxy)phenyl)-1H-imidazol-5-yl)methyl)phenyl)propanoic acid]	A (A: T ≥ 10° C.)
CC(O)(c1cccc(CCC(=O)O)c1)c1cnc(-c2cc(Oc3c(F)cc4[nH]ccc4c3F)ccc2F)[nH]1 (single isomer, unassigned) [Example 216A, 3-(3-(1-(2-(5-((4,6-difluoro-1H-indol-5-yl)oxy)-2-fluorophenyl)-1H-imidazol-5-yl)-1-hydroxyethyl)phenyl) propanoic acid]	B (B: 5-10° C.)
CC(c1cn(C)c(-c2cc(Oc3c(F)cc4[nH]ccc4c3F)ccc2F)n1)c1cccc(CCC(=O)O)c1F (single isomer, unassigned) [Example 278A, 3-(3-(1-(2-(5-((4,6-difluoro-1H-indol-5-yl)oxy)-2-fluorophenyl)-1-methyl-1H-imidazol-4-yl)ethyl)-2-fluorophenyl)propanoic acid]	C (C: ≤5° C.)
O=C(O)CCc1cccc(Cc2cnc(-c3cc(Oc4c(F)cc5[nH]ccc5c4F)ccc3F)[nH]2)c1F [Example 100, 3-(3-((2-(5-((4,6-Difluoro-1H-indol-5-yl)oxy)-2-fluorophenyl)-1H-imidazol-5-yl)methyl)-2-fluorophenyl)propanoic acid]	B (B: 5-10° C.)
CC(O)(c1cccc(CCC(=O)O)c1)c1c[nH]c(-c2cc(Oc3cc4cc[nH]c4c(F)c3F)ccc2F)n1 (centres unmarked) [Example 198, 3-(3-(1-(2-(5-((6,7-difluoro-1H-indol-5-yl)oxy)-2-fluorophenyl)-1H-imidazol-4-yl)-1-hydroxyethyl)phenyl) propanoic acid]	A (A: T ≥ 10° C.)
